# Assay results from patent US20160318866A1, “SUBSTITUTED BIPIPERIDINYL DERIVATIVES” (Bayer Pharma Aktiengesellschaft, priority 2013, published 2016).
# Where a name gives a salt, the structure may show the parent alone.
# Molecular target: T1, human α2C receptor (Homo sapiens, UniProt P18825)
# T1 construct: expressed in transfected cells; host or cells: CHO cells, also recombinantly expressing chimeric G protein Gαqi3 and mitochondrial obelin (mtOb)
# T1 sequence (P18825 1-462): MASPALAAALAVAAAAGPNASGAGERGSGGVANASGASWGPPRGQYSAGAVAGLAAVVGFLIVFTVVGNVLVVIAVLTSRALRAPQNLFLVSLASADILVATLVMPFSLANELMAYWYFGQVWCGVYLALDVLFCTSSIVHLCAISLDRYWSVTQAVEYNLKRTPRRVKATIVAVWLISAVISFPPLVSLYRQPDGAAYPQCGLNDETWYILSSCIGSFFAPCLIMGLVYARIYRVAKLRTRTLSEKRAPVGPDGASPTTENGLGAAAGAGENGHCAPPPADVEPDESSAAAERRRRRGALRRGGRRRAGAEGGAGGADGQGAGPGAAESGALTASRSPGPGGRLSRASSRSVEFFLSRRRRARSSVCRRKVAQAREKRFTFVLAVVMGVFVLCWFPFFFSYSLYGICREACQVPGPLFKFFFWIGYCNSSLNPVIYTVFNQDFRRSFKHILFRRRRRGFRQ
# Assay: Antagonism against the adrenoreceptor α2C (luminescence, recombinant CHO cell line)
# Assay type: cell-based
# Settings: antagonism against adrenoreceptor α2C; noradrenaline 20 nM; tested up to 10 μM; read-out: IC50
# Protocol: Antagonism against the adrenoreceptor α1A was tested using a recombinant human α1A receptor CHO cell line which additionally also recombinantly expresses mtAeq (mitochondrial aequorin). Antagonism against the adrenoreceptor α2A was tested using a recombinant human α2A-Gα16 receptor fusion protein CHO cell line (PerkinElmer Life Sciences) which additionally also recombinantly expresses mtAeq. Antagonism against the adrenoreceptor α2B was tested using a recombinant human α2B receptor CHO cell line (PerkinElmer Life Sciences) which additionally also recombinantly expresses mtAeq. Antagonism against the adrenoreceptor α2C was tested using a recombinant human α2C receptor CHO cell line which additionally also recombinantly expresses a chimaric G protein (Gαqi3) and mtOb (mitochondrial obelin).
# The cells were cultivated at 37° C. and 5% CO2 in Dulbecco's modified Eagle's Medium/NUT mix F12 with L-glutamine which additionally contains 10% (v/v) inactivated foetal calf serum, 1 mM sodium pyruvate, 0.9 mM sodium bicarbonate, 50 U/ml penicillin, 50 μg/ml streptomycin, 2.5 μg/ml amphotericin B and 1 mg/ml Geneticin. The cells were passaged with enzyme-free Hank's-based cell dissociation buffer. All cell culture reagents used are from Invitrogen (Carlsbad, USA).
# Luminescence measurements were carried out on white 384-well microtitre plates. 2000 cells/well were plated in a volume of 25 μl and cultivated for one day at 30° C. and 5% CO2 in cell culture medium with coelenterazine (α2A and α2B: 5 μg/ml; α1a/c and α2C: 2.5 μg/ml). Serial dilutions of the test substances (10 μl) were added to the cells. After 5 minutes, noradrenalinee was added to the cells (35 μl; final concentrations: 20 nM (α1a/c and α2C) or 200 nM (α2A and α2B)), and the emitted light was measured for 50 seconds using a CCD (charge-coupled device) camera (Hamamatsu Corporation, Shizuoka, Japan) in a light-tight box. The test substances were tested up to a maximum concentration of 10 μM. The IC50 values were calculated from the appropriate dose-response curves.
row,SMILES,IC50
1,"CC1CCCN(C2CCN(C(=O)c3ccc(C(C)(C)CO)cc3)CC2)C1 (stereo not shown) [Example 28, 1-{1-[4-(1-Hydroxy-2-methylpropan-2-yl)benzoyl]piperidin-4-yl}-3-methylpiperidine trifluoroacetic acid salt]",0.156 µM
2,"CCOC(=O)C1CCCN(C2CCN(C(=O)c3ccc(C(C)(C)C(=O)OCC)cc3)CC2)C1 (stereo not shown) [Example 29, 3-(Ethoxycarbonyl)-1-{1-[4-(1-ethoxy-2-methyl-1-oxopropan-2-yl)benzoyl]piperidin-4-yl}piperidine trifluoroacetic acid salt]",0.029 µM
3,"CCOC(=O)C1(c2ccc(C(=O)N3CCC(N4CCCC(C)C4)CC3)cc2)CC1 (stereo not shown) [Example 30, 1-(1-{4-[1-(Ethoxycarbonyl)cyclopropyl]benzoyl}piperidin-4-yl)-3-methylpiperidine trifluoroacetic acid salt]",0.166 µM
4,"CC1CCCN(C2CCN(C(=O)c3ccc(C4(CO)CC4)cc3)CC2)C1 (stereo not shown) [Example 31, 1-(1-{4-[1-(Hydroxymethyl)cyclopropyl]benzoyl}piperidin-4-yl)-3-methylpiperidine trifluoroacetic acid salt]",0.403 µM
5,"CCOC(=O)c1ccc(C(=O)N2CCC(N3CCCC(C)C3)CC2)cc1 (stereo not shown) [Example 32, 1-{1-[4-(Ethoxycarbonyl)benzoyl]piperidin-4-yl}-3-methylpiperidine trifluoroacetic acid salt]",0.222 µM
6,"CCOC(=O)Cc1ccc(C(=O)N2CCC(N3CCCC(C)C3)CC2)cc1 (stereo not shown) [Example 33, 1-{1-[4-(2-Ethoxy-2-oxoethyl)benzoyl]piperidin-4-yl}-3-methylpiperidine trifluoroacetic acid salt]",0.497 µM
7,"CCOC(=O)Cc1ccc(C(=O)N2CCC(N3CCCC(C(=O)OCC)C3)CC2)cc1 (stereo not shown) [Example 34, 3-(Ethoxycarbonyl)-1-{1-[4-(2-ethoxy-2-oxoethyl)benzoyl]piperidin-4-yl}piperidine trifluoroacetic acid salt]",0.086 µM
8,"CCCCN(C)C(=O)c1ccc(C(=O)N2CCC(N3CCCC(C)C3)CC2)cc1 (stereo not shown) [Example 35, N-Butyl-N-methyl-4-[(3-methyl-1,4′-bipiperidin-1′-yl)carbonyl]benzamide]",0.124 µM
9,"COCCNC(=O)c1ccc(C(=O)N2CCC(N3CCCC(C)C3)CC2)cc1 (stereo not shown) [Example 36, N-(2-Methoxyethyl)-4-[(3-methyl-1,4′-bipiperidin-1′-yl)carbonyl]benzamide]",0.479 µM
10,"CCN(CCOC)C(=O)c1ccc(C(=O)N2CCC(N3CCCC(C)C3)CC2)cc1 (stereo not shown) [Example 37, 1-(1-{4-[Ethyl-(2-methoxyethyl)carbamoyl]benzoyl}piperidin-4-yl)-3-methylpiperidine trifluoroacetic acid salt]",0.406 µM
11,"CC1CCCN(C2CCN(C(=O)c3ccc(C(=O)NC(C)(C)C)cc3)CC2)C1 (stereo not shown) [Example 38, 1-{1-[4-(tert-Butylcarbamoyl)benzoyl]piperidin-4-yl}-3-methylpiperidine trifluoroacetic acid salt]",0.139 µM
12,"CC1CCCN(C2CCN(C(=O)c3ccc(-c4cnco4)cc3)CC2)C1 (stereo not shown) [Example 39, (3-Methyl-1,4′-bipiperidin-1′-yl) [4-(1,3-oxazol-5-yl)phenyl]methanone]",0.244 µM
13,"CC(C)(C)c1ccc(C(=O)N2CCC(N3CCCC(OC(=O)N4CCCC4)C3)CC2)cc1 (stereo not shown) [Example 40, 1′-(4-tert-Butylbenzoyl)-1,4′-bipiperidin-3-yl-pyrrolidin-1-carboxylate trifluoroacetic acid salt]",0.127 µM
14,"COC(=O)C(C)(C)c1ccc(C(=O)N2CCC(N3CCCC(C)C3)CC2)c(F)c1 (stereo not shown) [Example 41, Methyl 2-{3-fluoro-4-[(3-methyl-1,4′-bipiperidin-1′-yl)carbonyl]phenyl}-2-methylpropanoate trifluoroacetic acid salt]",0.199 µM
15,"CCOC(=O)C1CCCN(C2CCN(C(=O)c3ccc(C(C)(C)OC)cc3)CC2)C1 (stereo not shown) [Example 42, Ethyl 1′-[4-(2-methoxypropan-2-yl)benzoyl]-1,4′-bipiperidine-3-carboxylate]",0.026 µM
16,"CC(c1ccccc1)N(C)C(=O)c1ccc(C(=O)N2CCC(N3CCC[C@@H](C)C3)CC2)cc1 (stereo partly drawn) [Example 43, N-Methyl-4-{[(3R)-3-methyl-1,4′-bipiperidin-1′-yl]carbonyl}-N-(1-phenylethyl)benzamide]",0.039 µM
17,"CCCC(C)NC(=O)c1ccc(C(=O)N2CCC(N3CCCC(C)C3)CC2)cc1 (stereo not shown) [Example 44, 4-[(3-methyl-1,4′-bipiperidin-1′-yl)carbonyl]-N-(pentan-2-yl)benzamide]",0.055 µM
18,"CC1CCCN(C2CCN(C(=O)c3ccc(C(=O)NCc4ccncc4)cc3)CC2)C1 (stereo not shown) [Example 45, 4-[(3-methyl-1,4′-bipiperidin-1′-yl)carbonyl]-N-(pyridin-4-yl-methyl) benzamide]",0.082 µM
19,"CC1CCN(C(=O)c2ccc(C(=O)N3CCC(N4CCCC(C)C4)CC3)cc2)C(C)C1 (stereo not shown) [Example 46, (2,4-dimethylpiperidin-1-yl){4-[(3-methyl-1,4′-bipiperidin-1′-yl)carbonyl]phenyl} methanone]",0.128 µM
20,"CC1CCCN(C2CCN(C(=O)c3ccc(C(=O)NC(C)C(C)C)cc3)CC2)C1 (stereo not shown) [Example 47, 4-[(3-methyl-1,4′-bipiperidin-1′-yl)carbonyl]-N-(3-methylbutan-2-yl)benzamide]",0.15 µM
21,"CC(C)CN(C)C(=O)c1ccc(C(=O)N2CCC(N3CCCC(C)C3)CC2)cc1 (stereo not shown) [Example 48, N-methyl-4-[(3-methyl-1,4′-bipiperidin-1′-yl)carbonyl]-N-(2-methylpropyl) benzamide]",0.199 µM
22,"CC1CCCN(C2CCN(C(=O)c3ccc(C(=O)N(C)C4CCCCC4)cc3)CC2)C1 (stereo not shown) [Example 49, N-cyclohexyl-N-methyl-4-[(3-methyl-1,4′-bipiperidin-1′-yl)carbonyl] benzamide]",0.348 µM
23,"Cc1cc(CN(C)C(=O)c2ccc(C(=O)N3CCC(N4CCCC(C)C4)CC3)cc2)on1 (stereo not shown) [Example 50, N-methyl-4-[(3-methyl-1,4′-bipiperidin-1′-yl)carbonyl]-N-[(3-methyl-1,2-oxazol-5-yl)methyl]benzamide]",0.169 µM
24,"CCCN(CC1CC1)C(=O)c1ccc(C(=O)N2CCC(N3CCCC(C)C3)CC2)cc1 (stereo not shown) [Example 51, N-(cyclopropyl-methyl)-4-[(3-methyl-1,4′-bipiperidin-1′-yl)carbonyl]-N-propylbenzamide]",0.18 µM
25,"CC1CCCN(C2CCN(C(=O)c3ccc(C(=O)N(C)CC4(C)COC4)cc3)CC2)C1 (stereo not shown) [Example 52, N-methyl-4-[(3-methyl-1,4′-bipiperidin-1′-yl)carbonyl]-N-[(3-methyloxetan-3-yl)methyl]benzamide]",0.182 µM
26,"CC1CCCN(C2CCN(C(=O)c3ccc(C(=O)NC(CO)Cc4ccc(Cl)cc4)cc3)CC2)C1 (stereo not shown) [Example 53, N-[1-(4-chlorophenyl)-3-hydroxypropan-2-yl]-4-[(3-methyl-1,4′-bipiperidin-1′-yl)carbonyl]benzamide]",0.198 µM
27,"CC1CCCN(C2CCN(C(=O)c3ccc(C(=O)NC(C)Cn4cccn4)cc3)CC2)C1 (stereo not shown) [Example 54, 4-[(3-methyl-1,4′-bipiperidin-1′-yl)carbonyl]-N-[1-(1H-pyrazol-1-yl)propan-2-yl]benzamide]",0.199 µM
28,"COCC(C)NC(=O)c1ccc(C(=O)N2CCC(N3CCCC(C)C3)CC2)cc1 (stereo not shown) [Example 55, N-(1-methoxypropan-2-yl)-4-[(3-methyl-1,4′-bipiperidin-1′-yl)carbonyl]benzamide]",0.33 µM
